Tests used:
[1] = tested on: A2780 ovarian carcinoma cells; experiment: Determination of antiproliferative activity on A2780 cells (MTT); type: cell-based; conditions: Homo sapiens, 96 h, four days of incubation, read-out: Cellular activity pIC50 (converted)
Procedure: Cellular activity of the compounds of formula (I) was determined on A2780 tumour cells using a colorimetric assay for cell toxicity or survival (Mosmann Tim, Journal of Immunological Methods 65:55-63, 1983)(see example C.2).
All compounds tested were dissolved in DMSO and further dilutions were made in culture medium. Final DMSO concentrations never exceeded 0.1% (v/v) in cell proliferation assays. Controls contained A2780 cells and DMSO without compound and blanks contained DMSO but no cells. MTT was dissolved at 5 mg/ml in PBS. A glycine buffer comprised of 0.1 M glycine and 0.1 M NaCl buffered to pH 10.5 with NaOH (1 N) was prepared (all reagents were from Merck).
The human A2780 ovarian carcinoma cells (a kind gift from Dr. T. C. Hamilton [Fox Chase Cancer Centre, Pennsylvania, USA]) were cultured in RPMI 1640 medium supplemented with 2 mM L-glutamine, 50 μg/ml gentamicin and 10% fetal calf serum. Cells were routinely kept as monolayer cultures at 37° C. in a humidified 5% CO2 atmosphere. Cells were passaged once a week using a trypsin/EDTA solution at a split ratio of 1:40. All media and supplements were obtained from Life Technologies. Cells were free of mycoplasma contamination as determined using the Gen-Probe Mycoplasma Tissue Culture kit (supplier: BioMerieux).
Cells were seeded in NUNC™ 96-well culture plates (Supplier: Life Technologies) and allowed to adhere to the plastic overnight. Densities used for plating were 1500 cells per well in a total volume of 200 μl medium. After cell adhesion to the plates, medium was changed and drugs and/or solvents were added to a final volume of 200 μl. Following four days of incubation, medium was replaced by 200 μl fresh medium and cell density and viability was assessed using an MTT-based assay. To each well, 25 μl MTT solution was added and the cells were further incubated for 2 hours at 37° C. The medium was then carefully aspirated and the blue MTT-formazan product was solubilized by addition of 25 μl glycine buffer followed by 100 μl of DMSO. […] Within an experiment, the results for each experimental condition are the mean of 3 replicate wells. For initial screening purposes, compounds were tested at a single fixed concentration of 10^−6 M. For active compounds, the experiments were repeated to establish full concentration-response curves. For each experiment, controls (containing no drug) and a blank incubation (containing no cells or drugs) were run in parallel. The blank value was subtracted from all control and sample values. For each sample, the mean value for cell growth (in absorbance units) was expressed as a percentage of the mean value for cell growth of the control. […] Herein the effects of test compounds are expressed as pIC50 (the negative log value of the IC50-value)(see Table F-3).

p21 promoter = experiment: p21 induction capacity, in vivo method (tumour fluorescence in nude mice); design: key: inactive (no fluorescence measurable); weaker, identical or better than R306465; weaker, identical or better than R306465; weaker, identical or better than R306465; conditions: oral administration, daily during 6 days, 20-40 mpk
Procedure: A first method tests the capacity of compounds to induce p21 as the consequence of HDAC inhibition at the cellular level. […] The reporter gene is a fluorescent protein and the expression of the reporter gene is measured as the amount of fluorescent light emitted (see example C.6.a.). The second method is an in vivo method wherein mice are used for screening the pharmaceutical activity of a compound. The above described stably transformed tumour cells can be administered to mice in an amount sufficient to effect production of a tumour. After the tumour cells had sufficient time to form a tumour, a potentially active compound can be administered to the animals and the effect of said compound On the tumour cells is evaluated by measuring the expression of the reporter gene. […]
A selected clone was injected subcutaneous (10^7 cells/200 μl) into the flank of nude mice and a calliper measurable tumour was obtained after 12 days. […] Tumours were evaluated for fluorescence by the in-house developed Automated Whole Body Imaging System (Fluorescent stereomicroscope type Olympus® SZX12 equipped with a GFP filter and coupled to a CCD camera type IAI® CV-M90 controlled by a software package based on the IMAQ Vision Software from National Instruments®). […]

- IC50 [1]: 25.1 nM
Compound: O=C(NO)c1cnc(N2CCC(CNC(/C=C/c3ccccc3)CO)CC2)nc1 (centres unmarked) [Compound 1]
- tumour fluorescence (p21 induction) ranked against R306465 (p21 promoter): better
